Results on four compounds are retold here after patent US20090326037A1 (priority 2005, published 2009).

In data set [1] the test system is influenza A/Singapore/1/57 virus. In words: microbe, parasite or virus in culture. It is filed as cell-based.
Data set [2] relates to avian influenza virus (H5N1). The class given is in vivo, white mice. Conditions: Oseltamivir 2.5 mg/kg alone (Arbidol 0 mg/kg), orally.
A short description of data set [3]: Toxicity (lethal effect, LD50) in mice. It is filed as in vivo. On the procedure:
(§1) Determination of toxicity of 1-methyl-2-phenylthiomethyl-3-carbethoxy-5-oxy-6-bromindol sulfon as compared with arbidol.
(§2) The administration of the preparations was carried out endogastrically, the period of observation of the animals was 14 days.

Data set [4] can be described thus: Toxicity (lethal effect, LD50) in rats. The class given is in vivo. The method, then: as §1, §2
For data set [5], the system named is influenza virus A/PR/8/34. The class given is cell-based. Conditions: influenza virus A/PR/8/34, MDCK cells; concentration not given.
Data set [6] has as its system influenza virus H3N2. It is filed as in vivo, mice.
Setting [7] is: Dose 100 mg/kg, endogastrically, observation 14 days.
Setting [8] is: Dose 250 mg/kg, endogastrically, observation 14 days.
The mark [9] stands for this setting: Dose 500 mg/kg, endogastrically, observation 14 days.
The mark [10] stands for this setting: Dose 1000 mg/kg, endogastrically, observation 14 days.
Where [11] appears, read: Dose 3000 mg/kg, endogastrically, observation 14 days.
Where [12] appears, read: Dose 5000 mg/kg, endogastrically, observation 14 days.
Setting [13] is: Dose 7500 mg/kg, endogastrically, observation 14 days.
Where [14] appears, read: Influenza A virus, MDCK, read-out: percent of inhibition of viral reproduction.

Several values for one entry are separate records, joined by “and”; a condition that tells them apart may be missing. Equal entries are not always repeated. Where two headings read alike, the source gives them in different places.

`CCOC(=O)C1=C[C@@H](OC(CC)CC)[C@H](NC(C)=O)[C@@H](N)C1` [Oseltamivir]: the “Percent of inhibition of OD 490” value is 36% and 18% in data set [1] (Oseltamivir 0.4 μg alone (A or C 0 μg/ml), two values: A series, C series, added 2 hours after infection); 37% and 20% in data set [1] (Oseltamivir 4.1 μg alone (A or C 0 μg/ml), two values: A series, C series, added 2 hours after infection); 48% and 34% in data set [1] (Oseltamivir 12.3 μg alone (A or C 0 μg/ml), two values: A series, C series, added 2 hours after infection); 52% and 36% in data set [1] (Oseltamivir 41 μg alone (A or C 0 μg/ml), two values: A series, C series, added 2 hours after infection). The suppression of reproduction in data set [1] (ten times greater amount (than 3.3 mg) of zanamivir or oseltamivir without the addition of arbidol) came out at 50%. Also, the “Surviving mice, %” value in data set [2] was determined as 60%.
As a reminder, the LD50 is the dose at which mortality reaches 50%. The low end stands for greater toxicity, the high end for lower toxicity. As for `CCOC(=O)c1c(CS(=O)(=O)c2ccccc2)n(C)c2cc(Br)c(O)cc12` [Sulfon, 1-methyl-2-phenylthiomethyl-3-carbethoxy-5-oxy-6-bromindol sulfon], the “Lethal effect upon administration to mice” value in data set [3] (setting [7]) is given as 0/6; in data set [3] (setting [8]) it was 0/6; in data set [3] (setting [9]), 0/6; in data set [3] (setting [10]) it was 0/6; in data set [3] (setting [11]), 2/6; in data set [3] (setting [12]), 4/6. Further, in data set [3] (setting [13]), the “Lethal effect upon administration to mice” value is recorded as 6/6. Moreover, the “toxicity as compared with arbidol” value in data set [3] (Table 5 (mice and rats), endogastrically) is listed as “significantly less toxic than arbidol”. In addition, the “LD50 relative to arbidol” value was determined as 4 times in data set [3] (mice, sulfon LD50 versus arbidol LD50) and 3 times in data set [4] (rats, sulfon LD50 versus arbidol LD50). The 50% lethal dose (LD50) at 14 days in data set [3] (mouse, in vivo, oral, mice, endogastrically, observation 14 days) was found to be 3600 ± 180 mg/kg; in data set [4] (rat, in vivo, oral, rats, endogastrically, observation 14 days), 5350 ± 250 mg/kg. Moreover, the “Lethal effect upon administration to rats” value in data set [4] (setting [7]) is reported as 0/6; in data set [4] (setting [8]) it was 0/6; in data set [4] (setting [9]), 0/6; in data set [4] (setting [10]), 0/6; in data set [4] (setting [11]) it was 2/6; in data set [4] (setting [12]) it was 4/6. Besides, the “Lethal effect upon administration to rats” value in data set [4] (setting [13]) is 6/6. In data set [5], the “Percent of suppression of virus reproduction” value was determined as 75%. For the same compound, the “Percent of surviving mice” value in data set [6] (Concentration 15) is 90%; in data set [6] (Concentration 30), 70%; in data set [6] (Concentration 100) it was 40% and 50% and 60%. For the same compound, the “antiviral action in vivo as compared with arbidol” value in data set [6] (mouse, in vivo) is “comparable with the action of arbidol”.
As to “1-methyl-2-(n-methyl-phenylsulfomethyl)-3-carbethoxy-4-dimethylaminomethyl-5-oxy-6-bromindol”, the “Percent of inhibition of OD 490” value is 17% in data set [1] (A or D 1 μg/ml + Amantadin 0.3 μg/ml, added 30 min prior to infection); 18% in data set [1] (A or D 1 μg/ml + Amantadin 1 μg/ml, added 30 min prior to infection); 29% in data set [1] (A or D 1 μg/ml + Amantadin 5 μg/ml, added 30 min prior to infection); 45% in data set [1] (A or D 1 μg/ml + Amantadin 10 μg/ml, added 30 min prior to infection); 18% in data set [1] (A or D 1 μg/ml + Remantadin 0.3 μg/ml, added 30 min prior to infection); 20% in data set [1] (A or D 1 μg/ml + Remantadin 1 μg/ml, added 30 min prior to infection). The “Percent of inhibition of OD 490” value in data set [1] (A or D 1 μg/ml + Remantadin 5 μg/ml, added 30 min prior to infection) was found to be 36%; in data set [1] (A or D 1 μg/ml + Remantadin 10 μg/ml, added 30 min prior to infection), 42%; in data set [1] (A or D 1 μg/ml alone (Amantadin 0), added 30 min prior to infection) it was 15%; in data set [1] (A or D 1 μg/ml alone (Remantadin 0), added 30 min prior to infection), 12%; in data set [1] (A or D 5 μg/ml + Amantadin 0.3 μg/ml, added 30 min prior to infection) it was 38%; in data set [1] (A or D 5 μg/ml + Amantadin 1 μg/ml, added 30 min prior to infection), 41%. The “Percent of inhibition of OD 490” value in data set [1] (A or D 5 μg/ml + Amantadin 5 μg/ml, added 30 min prior to infection) stood at 53%; in data set [1] (A or D 5 μg/ml + Amantadin 10 μg/ml, added 30 min prior to infection), 70%; in data set [1] (A or D 5 μg/ml + Remantadin 0.3 μg/ml, added 30 min prior to infection), 48%; in data set [1] (A or D 5 μg/ml + Remantadin 1 μg/ml, added 30 min prior to infection), 44%; in data set [1] (A or D 5 μg/ml + Remantadin 5 μg/ml, added 30 min prior to infection), 50%; in data set [1] (A or D 5 μg/ml + Remantadin 10 μg/ml, added 30 min prior to infection), 73%. For the same compound, the “Percent of inhibition of OD 490” value in data set [1] (A or D 5 μg/ml alone (Amantadin 0), added 30 min prior to infection) is recorded as 24%; in data set [1] (A or D 5 μg/ml alone (Remantadin 0), added 30 min prior to infection), 20%; in data set [1] (A or D 10 μg/ml + Amantadin 0.3 μg/ml, added 30 min prior to infection), 57%; in data set [1] (A or D 10 μg/ml + Amantadin 1 μg/ml, added 30 min prior to infection), 70%; in data set [1] (A or D 10 μg/ml + Amantadin 5 μg/ml, added 30 min prior to infection), 75%; in data set [1] (A or D 10 μg/ml + Amantadin 10 μg/ml, added 30 min prior to infection), 80%. Also, the “Percent of inhibition of OD 490” value in data set [1] (A or D 10 μg/ml + Remantadin 0.3 μg/ml, added 30 min prior to infection) was 69%; in data set [1] (A or D 10 μg/ml + Remantadin 1 μg/ml, added 30 min prior to infection) it was 69%; in data set [1] (A or D 10 μg/ml + Remantadin 5 μg/ml, added 30 min prior to infection) it was 70%; in data set [1] (A or D 10 μg/ml + Remantadin 10 μg/ml, added 30 min prior to infection), 75%; in data set [1] (A or D 10 μg/ml alone (Amantadin 0), added 30 min prior to infection), 40%; in data set [1] (A or D 10 μg/ml alone (Remantadin 0), added 30 min prior to infection) it was 54%.
Broadly, the inhibition is how much of the control response was suppressed. Regarding `NC(=O)c1ncn([C@@H]2O[C@H](CO)[C@@H](O)[C@H]2O)n1` [Ribavirin], in data set [1] (setting [14]), the inhibition at 1 µg/mL was determined as 5%, the inhibition at 3 µg/mL came to 25%, the inhibition at 10 µg/mL was 30% and the inhibition at 15 µg/mL is 38%.
